The values that follow are results of earlier work, collected in paper PMC9683570.

Structures can show the parent of a compound that is named as a salt. Where two headings read alike, the source gives them in different places. Some results are limits rather than exact numbers.

Data set [1] deals with hCaV1.2α, β2, α2δ1 subunits. Also on record: method as in PMID 30151907. To be noted: IonWorks Barracuda, ambient temperature, […] Ca2+, current at 0 mV step, 10 s interval, rundown adjusted; read-out: IC50 (Li et al. 2018). A general note: Patch clamp records ionic current or voltage across a cell membrane.
Details of data set [2]: method as in DrugBank. To be noted: predicted, based on ChemAxon; ref DrugBank.
The subject of another data set is NaV1.5 channels. To be noted: similar concentrations as tested on CaV1.2.
Another data set concerns L-type Ca2+ channels. Also on record: method as in PMID 17909749. Conditions: from 22°C to 37°C.
Another data set relates to Ca2+ current (L-type). Conditions: peak current inhibited less potently than late current at end of step depolarization.
Data set [3] relates to L-type Ca2+ current. Details: method as in PMID 19367686. To be noted: 20–25 °C, 10 Ca2+.
For another data set, the system named is hCaV1.2, β2, α2δ. To be noted: ambient, 1.8 Ca2+.
Data set [4] relates to CaVAb (voltage-dependent Ca2+-selective channel). Conditions: 13 Ba2+.
The next data set deals with hCav1.2. Also on record: method as in PMID 23651875. To be noted: RT.
Data set [5] has as its system CaV1.2, α2δ, β2a. To be noted: 22–25 °C, 20 Ba2+.
Data set [6] concerns CaV1.2, α2δ, β2a. Conditions: ~25 °C.
Another data set concerns CaV1.2, α2δ, β1b. Conditions: read-out: IC50 (± SE); RT, 10 Ba2+.
Data set [7] concerns CaV1.2, α2δ, β2a along with Kir2.3. Conditions: 30 Ba2+.
For data set [8], the system named is L-type Ca2+ current. To be noted: RT (22–25 °C), 2 Ca2+.

Consider `CC(C)(C)c1ccc(C(O)CCCN2CCC(C(O)(c3ccccc3)c3ccccc3)CC2)cc1` (stereo not drawn) [Terfenadine], for which the IC50 in [1] is […]. Further, the “Log P” value in data set [2] is 6.48.

As for `O=C1CC[C@@]2(O)[C@H]3Cc4ccc(O)c5c4[C@@]2(CCN3CC2CC2)[C@H]1O5` [Naltrexone, naltrexone hydrochloride], in the data set on NaV1.5 channels, the “nH on the peak and the late current” value is on record as no less than 0.8.

As for `Cc1c(-c2ccccc2)oc2c(C(=O)OCCN3CCCCC3)cccc2c1=O` [flavoxate], in the data set on L-type Ca2+ channels, the “increase in block potency on raising the recording temperature” value was 2.2 X.

For the molecule `COCCOC(=O)C1=C(C)NC(C)=C(C(=O)OC(C)C)C1c1cccc([N+](=O)[O-])c1` (stereo not drawn) [nimodipine], the “difference in the IC50s, peak vs late Ca2+ current” value in the data set with Ca2+ current (L-type) is reported as 13.1 X.

As for `C=CCN1CC[C@]23c4c5ccc(O)c4O[C@H]2C(=O)CC[C@@]3(O)[C@H]1C5` [Naloxone, Naloxone hydrochloride], the “nH on the peak and the late current” value in the data set with NaV1.5 channels is given as no less than 0.8.

Regarding `CC(C)COCC(CN(Cc1ccccc1)c1ccccc1)N1CCCC1` (stereo not drawn) [Bepridil], in [1], the concentration for half-maximal inhibition (IC50) is 638 µM. Further, in data set [2], the log partition coefficient (Log P) was 5.49.

With `COc1ccc(CCN(C)CCCC(C#N)(c2ccc(OC)c(OC)c2)C(C)C)cc1OC` (racemic) [Verapamil, (±)-verapamil hydrochloride], the IC50 in data set [1] was […]; with L-type Ca2+ current [3], 0.79 µM; in [4] (20 pulses at 1 Hz, read-out: IC50 (± SE)), […]; in the data set with hCav1.2 (converted from pIC50) it was […]. Besides, the “nH (± SE)” value with hCaV1.2, β2, α2δ was […]. In the data set with hCav1.2, the pIC50 is reported as […].

Turning to `Cc1nccn1CC1CCc2c(c3ccccc3n2C)C1=O` (stereo not drawn) [Ondansetron], the half-maximal inhibitory concentration (IC50) in [1] is 9310 µM. Besides, the log partition coefficient (Log P) in data set [2] is 2.35.

With `CN(C)CCCN1c2ccccc2Sc2ccc(Cl)cc21` [Chlorpromazine], the IC50 in data set [1] was 6.35 µM. For the same molecule, the lipophilicity (Log P) in data set [2] is listed as 4.54.

`COc1ccc([C@@H]2Sc3ccccc3N(CCN(C)C)C(=O)[C@@H]2OC(C)=O)cc1` [Diltiazem, diltiazem hydrochloride]: the half-inhibitory concentration (IC50) in data set [1] was 31.6 µM; with CaV1.2, α2δ, β2a [5], 85 ± 9 µM; in the data set on L-type Ca2+ current [3], 30 µM; with hCaV1.2, β2, α2δ, 0.76 ± 0.08 µM; in data set [4] (20 ms single pulse from -120 mV, read-out: IC50, resting state block), 41 µM; in [4] (20 pulses at 1 Hz from -120 mV, read-out: IC50, use-dependent block), 10.4 µM. Also, the IC50 is 109 µM with CaV1.2, α2δ, β2a [6] (5 mM Ba2+, read-out: IC50 (± SE) (Ba2+) (converted)); 250 ± 16 µM with CaV1.2, α2δ, β2a [6] (1.8 Ca2+, read-out: IC50 (± SE) (Ca2+)); 65 ± 13 µM with CaV1.2, α2δ, β1b; 36 µM in data set [7] (read-out: IC50 (automated), PatchXpress 7000A, 22–26 °C); 44 µM in data set [7] (read-out: IC50 (manual), manual, 20–25 °C); 0.63 ± 0.05 µM with L-type Ca2+ current [8] (read-out: IC50 (± SE)). In addition, the “nH (± SE)” value in the data set on hCaV1.2, β2, α2δ is recorded as 1.14 ± 0.15. Moreover, in the data set with L-type Ca2+ current [8], the nH is on record as 0.77.

Take `COC(=O)C1=C(C)NC(C)=C(C(=O)OC)C1c1ccccc1[N+](=O)[O-]` [nifedipine]: the “increase in block potency on raising the recording temperature” value in the data set on L-type Ca2+ channels is given as 7 X.

Usually IC50 stands for the concentration that inhibits the measured activity by half. The Log P is the decadic logarithm of the partition coefficient of the neutral form, usually between octanol and water. For orientation: pIC50 means −log10 of the IC50, conventionally taken in molar units.
